14 compounds from ChEMBL document CHEMBL5241112, “Insights into the recent progress in the medicinal chemistry of pyranopyrimidine analogs” (RSC Med Chem, 2022) can be followed below.

Molecules are shown by their SMILES. Values after ≈ are worked out from the molar mass of the structure shown.

The subject of one assay is Aspergillus fumigatus. In words: microbe, parasite or virus in culture. The class given is functional. The note with it: ATCC204305, dose 50 mg/ml, time 24 hrs, read-out: DIZ.
In assay [1] the test system is Escherichia coli. Briefly: Antibacterial activity against Escherichia coli ATCC 25922 assessed as diameter of inhibition zone at 50 mg/ml incubated for 24 hrs by paper disk diffusion method. The following applies: read-out: DIZ. The class given is functional. Background: Agar diffusion results depend on both activity and mobility in agar.
For assay [2], the system named is Klebsiella pneumoniae. Briefly: Antibacterial activity against Klebsiella pneumoniae MGH 78578 assessed as diameter of inhibition zone at 50 mg/ml incubated for 24 hrs by paper disk diffusion method. The class given is functional. The following applies: read-out: DIZ.
The test system of assay [3] is MCF7. In words: Antiproliferative activity against human MCF7 cells assessed as reduction in cell proliferation. The class given is functional, cell-based.
The test system of assay [4] is HepG2. Briefly: Antiproliferative activity against human HepG2 cells assessed as reduction in cell proliferation. The class given is functional, cell-based.
The nature of assay [5]: Antiproliferative activity against human […] cells assessed as reduction in cell proliferation. Format: functional, cell-based.
Assay [6] relates to Escherichia coli. Briefly: Antimicrobial activity against Escherichia coli ATCC 25922 assessed as diameter of inhibition zone at 20 mg/ml incubated for 24 hrs by disk diffusion method. Format: functional. The following applies: read-out: DIZ.
Assay [7] concerns Klebsiella pneumoniae. In words: Antimicrobial activity against Klebsiella pneumoniae ATCC 15380 assessed as diameter of inhibition zone at 20 mg/ml incubated for 24 hrs by disk diffusion method. Format: functional. The note with it: read-out: DIZ.
Assay [8] concerns Pseudomonas aeruginosa. Briefly: Antimicrobial activity against Pseudomonas aeruginosa ATCC 27853 assessed as diameter of inhibition zone at 20 mg/ml incubated for 24 hrs by disk diffusion method. The note with it: read-out: DIZ. The class given is functional.
Assay [9] in a line: Antioxidant activity assessed as H2O2 radical scavenging activity. Format: functional.
Assay [10] can be described thus: Antioxidant activity assessed as NO radical scavenging activity. Format: functional.
A short description of assay [11]: Antioxidant activity assessed as DPPH radical scavenging activity. Format: functional. Background: DPPH is a stable violet radical that fades when it is reduced.
The test system of assay [12] is Klebsiella pneumoniae. Briefly: Antibacterial activity against Klebsiella pneumoniae assessed as bacterial growth inhibition by broth microdilution method. The class given is functional. For orientation: Dilution methods test growth across graded concentrations, often in twofold steps.
Assay [13] deals with Pseudomonas aeruginosa. In words: Antibacterial activity against Pseudomonas aeruginosa assessed as bacterial growth inhibition by broth microdilution method. Format: functional.
Assay [14] relates to Staphylococcus aureus. Briefly: Antibacterial activity against Staphylococcus aureus assessed as inhibition of bacterial growth. The class given is functional.
Another assay relates to Salmonella typhimurium. In words: Antibacterial activity against Salmonella typhimurium MTCC 98 assessed as bacterial growth inhibition by broth microdilution method. The class given is functional, Salmonella enterica subsp. enterica serovar Typhimurium. The following applies: Salmonella enterica.
For assay [15], the system named is Mycobacterium tuberculosis. Briefly: Antitubercular activity against Mycobacterium tuberculosis H37Rv assessed as bacterial growth inhibition incubated for 24 hrs by MABA assay. The class given is functional.
The test system of assay [16] is Escherichia coli. Briefly: Antibacterial activity against Escherichia coli assessed as bacterial growth inhibition by broth microdilution method. Format: functional.
The subject of assay [17] is Staphylococcus aureus. In words: Antibacterial activity against Staphylococcus aureus assessed as bacterial growth inhibition by broth microdilution method. Format: functional.
Assay [18] relates to Staphylococcus aureus. Briefly: Antimicrobial activity against Staphylococcus aureus assessed as diameter of inhibition zone at 5.0 mg/ml incubated for 12 hrs by agar disk diffusion method. The class given is functional. The following applies: read-out: DIZ.
In assay [19] the test system is Bacillus cereus. In words: Antimicrobial activity against Bacillus cereus assessed as diameter of inhibition zone at 1.2 mg/ml incubated for 12 hrs by agar disk diffusion method. The note with it: read-out: DIZ. The class given is functional.
The subject of assay [20] is Escherichia coli. In words: Antimicrobial activity against Escherichia coli assessed as diameter of inhibition zone at 2.5 mg/ml incubated for 12 hrs by agar disk diffusion method. The note with it: read-out: DIZ. Format: functional.
The test system of assay [21] is Pseudomonas aeruginosa. Briefly: Antimicrobial activity against Pseudomonas aeruginosa assessed as diameter of inhibition zone at 2.5 mg/ml incubated for 12 hrs by agar disk diffusion method. Format: functional. The note with it: read-out: DIZ.
The test system of assay [22] is Bacillus cereus. Briefly: Antimicrobial activity against Bacillus cereus assessed as diameter of inhibition zone at 2.5 mg/ml incubated for 12 hrs by agar disk diffusion method. Format: functional. The following applies: read-out: DIZ.
The test system of assay [23] is Pseudomonas aeruginosa. Briefly: Antimicrobial activity against Pseudomonas aeruginosa assessed as diameter of inhibition zone at 1.2 mg/ml incubated for 12 hrs by agar disk diffusion method. The class given is functional. The following applies: read-out: DIZ.
Assay [24] relates to Staphylococcus aureus. Briefly: Antimicrobial activity against Staphylococcus aureus assessed as diameter of inhibition zone at 1.2 mg/ml incubated for 12 hrs by agar disk diffusion method. The class given is functional. The following applies: read-out: DIZ.
For assay [25], the system named is Escherichia coli. Briefly: Antimicrobial activity against Escherichia coli assessed as diameter of inhibition zone at 5.0 mg/ml incubated for 12 hrs by agar disk diffusion method. Format: functional. The note with it: read-out: DIZ.
For assay [26], the system named is Pseudomonas aeruginosa. Briefly: Antimicrobial activity against Pseudomonas aeruginosa assessed as diameter of inhibition zone at 5.0 mg/ml incubated for 12 hrs by agar disk diffusion method. The class given is functional. The following applies: read-out: DIZ.
For assay [27], the system named is Bacillus cereus. In words: Antimicrobial activity against Bacillus cereus assessed as diameter of inhibition zone at 5.0 mg/ml incubated for 12 hrs by agar disk diffusion method. The class given is functional. The following applies: read-out: DIZ.
The subject of assay [28] is Staphylococcus aureus. In words: Antimicrobial activity against Staphylococcus aureus assessed as diameter of inhibition zone at 2.5 mg/ml incubated for 12 hrs by agar disk diffusion method. The following applies: read-out: DIZ. Format: functional.
In assay [29] the test system is MCF7. Briefly: Anticancer activity against human MCF7 cells assessed as reduction in cell viability incubated for 24 hrs by MTT colorimetric assay. Format: functional, cell-based. The note with it: MCF7, 24 h.
The test system of assay [30] is HepG2. Briefly: Anticancer activity against human HepG2 cells assessed as reduction in cell viability incubated for 24 hrs by MTT colorimetric assay. Format: functional, cell-based. The following applies: HepG2, 24 h.
The next assay deals with HCT-116. Briefly: Anticancer activity against human HCT-116 cells assessed as reduction in cell viability incubated for 24 hrs by MTT colorimetric assay. Format: functional, cell-based. The following applies: HCT-116, 24 h.
The nature of assay [31]: Antioxidant activity assessed as DPPH radical scavenging activity at 75 ug/ml incubated for 30 mins by spectrophotometric analysis. Format: functional. The following applies: dose 75.0 µg/ml.

Take `Nc1ncnc2c1C(c1ccc(Cl)cc1)C=C(c1cc3ccccc3oc1=O)O2` (stereo unspecified): the zone of inhibition at 50000 µg/mL with Aspergillus fumigatus was determined as 10 mm; in the assay on Escherichia coli [1], 10 mm; in the assay on Klebsiella pneumoniae [2], 14 mm.
Turning to `c1ccc(-c2nn(-c3ccccc3)cc2C2c3c(ccc4ccccc34)Oc3ncn4ncnc4c32)cc1` (stereo unspecified), the IC50 was 10 µM with MCF7 [3], 9.04 µM in the assay with HepG2 [4] and 4.9 µM in assay [5].
As to `N=c1c2c(ncn1-c1ccccc1O)Oc1ccc3ccccc3c1C2c1cn(-c2ccccc2)nc1-c1ccccc1` (stereo unspecified), the values for the IC50 (in the assay on MCF7 [3]; in the assay with HepG2 [4]; in assay [5]) were 2.67 µM, 3.41 µM and 4.9 µM, respectively.
Regarding `Cc1ccc(C2C(C#N)=C(N)Oc3[nH]c(=O)[nH]c(=O)c32)s1` (stereo unspecified), the zone of inhibition at 20000 µg/mL in the assay with Escherichia coli [6] is 14 mm; with Klebsiella pneumoniae [7], 16 mm; in the assay on Pseudomonas aeruginosa [8], 18 mm.
For `Nc1ncnc2c1C(c1ccc([N+](=O)[O-])cc1)c1ccc(O)cc1O2` (stereo unspecified), the IC50 in [9] turned out to be 53.54 µg/mL (≈ 159 µM); in assay [10], 50.32 µg/mL (≈ 150 µM); in assay [11], 34.34 µg/mL (≈ 102 µM).
With `O=C(O)c1cn(C2CC2)c2cc(N3CCNCC3)c(F)cc2c1=O` [CIPROFLOXACIN], the MIC came out at 3.12 µg/mL (≈ 9.42 µM) with Klebsiella pneumoniae [12]; 3.12 µg/mL (≈ 9.42 µM) with Pseudomonas aeruginosa [13]; 50 µg/mL (≈ 151 µM) in the assay on Staphylococcus aureus [14]; 25 µg/mL (≈ 75.4 µM) in the assay on Salmonella typhimurium; 3.12 µg/mL (≈ 9.43 µM) in assay [15]; 3.12 µg/mL (≈ 9.42 µM) in the assay with Escherichia coli [16]. Besides, in the assay on Staphylococcus aureus [17], the MIC was found to be 3.12 µg/mL (≈ 9.42 µM).
Regarding `N#CC1=C(N)Oc2[nH]c(=O)[nH]c(=O)c2C1c1ccncc1` (stereo unspecified), the zone of inhibition at 5000 µg/mL in the assay on Staphylococcus aureus [18] worked out at 14 mm; in the assay with Escherichia coli [25] it was 17 mm; with Pseudomonas aeruginosa [26], 19 mm; in the assay with Bacillus cereus [27], 19 mm. In addition, the zone of inhibition at 1200 µg/mL with Bacillus cereus [19] was found to be 10 mm; with Pseudomonas aeruginosa [23], 12 mm; in the assay with Staphylococcus aureus [24] it was 8 mm. In addition, the zone of inhibition at 2500 µg/mL in the assay with Escherichia coli [20] turned out to be 13 mm; in the assay with Pseudomonas aeruginosa [21] it was 16 mm; with Bacillus cereus [22], 15 mm; in the assay with Staphylococcus aureus [28] it was 10 mm.
Turning to `N#CC(C#N)=C1c2c(-c3ccccc3)n[nH]c2Oc2[nH]c(=O)nc(-c3ccccc3O)c21`, the IC50 in the assay with MCF7 [29], with HepG2 [30] and with HCT-116 was 30.1 µM each time.
In the case of `N=c1c2c(ncn1N)Oc1[nH]nc(-c3ccccc3)c1C2c1coc2ccccc2c1=O` (stereo unspecified), in assay [31], the Activity came to 85.5%.
`Cc1ccc(S(=O)(=O)Nn2cnc3c(c2=N)C(c2cn(-c4ccccc4)nc2-c2ccccc2)c2c(ccc4ccccc24)O3)cc1` (stereo unspecified): the half-maximal inhibitory concentration (IC50) with MCF7 [3] was determined as 9.29 µM; in the assay with HepG2 [4], 10 µM; in assay [5], 4.9 µM.
As to `N#CC(C#N)=C1c2c(-c3ccccc3)n[nH]c2Oc2c1c(-c1ccccc1O)[nH]c1nc(=O)[nH]c(=O)c2-1`, the IC50 in the assay on MCF7 [29] came out at 22.6 µM; with HepG2 [30], 21.9 µM; in the assay with HCT-116, 18.5 µM.
Regarding `Nc1ncnc2c1C(c1ccc3c(c1)OCO3)c1ccc(O)cc1O2` (stereo unspecified), the values for the IC50 in assay [9] and in assay [11] were 53.54 µg/mL (≈ 160 µM) and 39.46 µg/mL (≈ 118 µM), respectively.
As for `Cc1cc(C(C)(C)C)c(O)c(C(C)(C)C)c1` [BUTYLATED HYDROXYTOLUENE], the values for the concentration for half-maximal inhibition (IC50) in assay [9], in [10] and in assay [11] were 65.33 µg/mL (≈ 296 µM), 56.9 µg/mL (≈ 258 µM) and 37.52 µg/mL (≈ 170 µM), respectively.
As for `NNc1ncnc2c1C(c1cn(-c3ccccc3)nc1-c1ccccc1)c1c(ccc3ccccc13)O2` (stereo unspecified), the half-maximal inhibitory concentration (IC50) in the assay on MCF7 [3] worked out at 9.89 µM; in the assay on HepG2 [4] it was 9.26 µM; in assay [5] it was 4.9 µM.

For orientation: IC50 means the concentration at which inhibition is half-maximal. One may read the MIC as the least concentration at which growth counts as inhibited.
